According to US8889411B2, “Modulation of stem and progenitor cell differentiation, assays, and uses thereof” (Anthrogenesis Corporation, priority 2002, dated 2014):

Assays:
[1] = tested on: adult SJL/L mice with bone marrow ablation by lethal irradiation; assay: Transplantation of ACTIMID-pretreated nucleated cells into lethally irradiated mice; type: in vivo, mouse; settings: for % Starting Body Weight at 50 days: irradiated mice
Method: Placental nucleated cells (PLNC), umbilical cord blood nucleated cells (UCBNC) and bone marrow cells (BMNC) were obtained from human donors. PLNC and UCBNC were obtained from placenta and umbilical cord using methods described in Section 5.4 above.
The cells were pretreated by incubation in DMEM supplemented with 2% human CB serum with 10 µg/ml ACTIMID™ for 24 hours. Cells were then washed, resuspended in autologous plasma, and administered intravenously to recipient adult SJL/L mice (Jackson Laboratories) that had bone marrow ablation produced by lethal irradiation (900cGy) according to standard methods. Such irradiation is better than 90% lethal by 50 days post-irradiation (Ende et al., 2001, Life Sciences 69(13):1531-1539; Chen and Ende, 2000, J. Med. 31: 21-30; Ende et al., 2000, Life Sci. 67(1):53-9; Ende and Chen, 2000, Am. J. Clin. Pathol. 114: 89).

[2] = tested on: Bone marrow and cord blood CD34+ progenitor cells; assay: Differentiation of CD34+ progenitor cells into dendritic cells, cell surface phenotype by flow cytometry; type: cell-based, human; set-up: key to Cell Population CD15+ / Cell Population CD34+ CD38− / Cell Population CD34− CD38+ / Cell Population CD1a+ CD14− / Cell Population CD1a− CD14+: ↑: up arrow indicates an increase in the cell population; ↓: down arrow indicates a decrease
Method: Bone marrow and cord blood CD34^+ progenitor cells were obtained from Clonetics and cultured in Iscove's MDM with BIT 95000 (StemCell Technologies) in the presence of SCF, Flt-3L, GM-CSF and TNF-α for 6 days, and then in the presence of GM-CSF and TNF-α for 6 additional days.
Analysis of cell surface phenotype: Cells were processed for double staining (30 min at 4° C.) at day 6 and day 12 using FITC and PE conjugated mAbs. Antibodies used were from BD Pharmingen: CD34 (PE), CD38 (FITC), CD33 (FITC), CD1a (FITC), CD86 (PE), CD14 (PE), CD83 (PE), CD54 (PE), CD11b (PE), CD11c (PE), HLA-DR (PE), CD15 (FITC), and CD133 (PE) from Miltenyi. Fluorescence analysis was performed on a FACScan flow cytometer after acquisition of 10,000 events (Coulter). Results presented are representative of four independent experiments.
The methodology described above, i.e., the examination of the effect of IMiDs such as ACTIMID™ on the differentiation on early progenitor cells, such as CD34^+ cells, can be applied to any compound of interest, the effect of which on differentiation is desired to be known. As an example of the extension of this assay method to other compounds, we compared the effect of retinoic acid (ATRA) and aspirin to that of ACTIMID™ on the differentiation of CD34^+ cells toward the DC lineage versus the control (DMSO-treated) cells. Retinoic acid was studied because of its known effect on cellular proliferation and differentiation, its therapeutic use in some cancer, and its known teratogenic effect. Conversely, we studied the effect of aspirin because it is a commonly-used anti-inflammatory drug with no immunomodulatory properties. The results at day 6 of CD34^+ progenitors cells cultured in the presence of SCF, Flt-3L, GM-CSF and TNF-α, with or without compound for a period of 6 days, are presented below in Table 2 (up arrow indicates an increase in the cell population; down arrow indicates a decrease).

[3] = Day 12, compound from day 6 to day 12
[4] = day 6, SCF, Flt-3L, GM-CSF and TNF-α, versus DMSO-treated control

With `Nc1cccc2c1C(=O)N(C1CCC(=O)NC1=O)C2=O` (stereo not shown) [ACTIMID™, 4-(Amino)-2-(2,6-dioxo(3-piperidyl))-isoindoline-1,3-dione] the “survival of transplanted PLNC, UCBNC and BMNC” value ([1]; ACTIMID pre-treatment of cells) was “increases the survival”, the “# of Animals Dead at 50 days” value ([1]; PLNC 5 × 10^6 + ACTIMID pre-treatment (10 g/ml, 24 hours) intravenous, 4 animals irradiated (900cGy)) was 0 and the “% Starting Body Weight at 50 days” value ([1]; PLNC 5 × 10^6 + ACTIMID pre-treatment intravenous) was 102%. The “# of Animals Dead at 50 days” value ([1]; UCBNC 10 × 10^6 + ACTIMID pre-treatment intravenous, 3 animals irradiated (900cGy)) was 0, the “% Starting Body Weight at 50 days” value ([1]; UCBNC 10 × 10^6 + ACTIMID pre-treatment intravenous) was 84% and the “toxic effects on CD34+ cells” value [2] was “no toxic effects”. The “CD34+CD38− population” value ([2]; 1 μM, day 1 to day 12) was “increased”, the “acquisition of the DC phenotype” value ([2]; 1 μM, day 1 to day 12) was “inhibited” and the “expression of co-stimulatory molecules (CD86, CD80) at day 12” value ([2]; 1 μM, day 1 to day 12) was “decreased expression”. The “expression of the CD54bright population” value ([2]; 1 μM, day 12) was “decreased expression”, the “expression of the CD54dim population” value ([2]; 1 μM, day 12) was “increased expression” and the “generation of CD14+CD1a− cells” value ([2]; 1 μM, from day 1) was “decreased”. For the same compound, the “generation of CD1a+ cells at day 6” value ([2]; 1 μM, from day 1, particularly CD86+CD1a+ cells) was “almost completely prevented”, the “expression of the CD15 surface molecule (granulocytic marker)” value ([2]; 12 days in the presence of compound, FIG. 22) was “increased” and the “cells' ability to proliferate” value ([2]; CD34+ cells) was “not to impair”. For the same compound, the “CD1a+” value [2, 3] was 11.5%, the “CD14+” value [2, 3] was 8.0% and the “CD80+” value [2, 3] was 13.8%. For the same compound, the “CD86+” value [2, 3] was 18.5%, the “CD11c+CD15− population” value ([2]; FIG. 19B) was “decrease” and the “CD11c−CD15+ granulocytic population” value ([2]; FIG. 19B) was “increase”. For the same compound, the “Cell Population CD1a+ CD14−” value [2, 4] was “↓”, the “Cell Population CD1a− CD14+” value [2, 4] was “↓” and the “Cell Population CD15+” value [2, 4] was “↑”. The “Cell Population CD34+ CD38−” value [2, 4] was “↑”, the “Cell Population CD34− CD38+” value [2, 4] was “↓” and the “concentration at which increase in CD34+CD38− cells and block in myeloid DC progenitors reached a maximum” value ([2]; dose dependant, day 0 to day 6, FIG. 17) was 1 µM. The “culture time with compound needed for interference with the CD34 differentiation pathway” value ([2]; effect reversible, FIG. 18) was “at least 3 days”, the “expression of CD133” value ([2]; multiple doses) was “increases” and the “increase in the CD34+ population” value ([2]; multiple doses between days 0 and 6) was “intensified the increase”. For the same compound, the “expression of HLA-DR molecules” value ([2]; treated CD34+ progenitors, day 12) was “reduced”.
